Results: patent US10617664B2, “Brain derived PPARα ligands” (Rush University Medical Center, priority 2015, dated 2020)

Biological target: T1, Y314D-Ppara (Mus musculus, UniProt P23204, Y314D)
T1 construct: the entire mouse GFP-Ppara gene (GFP-FLPpara) and three different mutated genes were cloned; expressed in transfected cells; host or cells: Ppara-null mouse hippocampal neurons, lentiviral transduction
T1 sequence (P23204 1-468 Y314D): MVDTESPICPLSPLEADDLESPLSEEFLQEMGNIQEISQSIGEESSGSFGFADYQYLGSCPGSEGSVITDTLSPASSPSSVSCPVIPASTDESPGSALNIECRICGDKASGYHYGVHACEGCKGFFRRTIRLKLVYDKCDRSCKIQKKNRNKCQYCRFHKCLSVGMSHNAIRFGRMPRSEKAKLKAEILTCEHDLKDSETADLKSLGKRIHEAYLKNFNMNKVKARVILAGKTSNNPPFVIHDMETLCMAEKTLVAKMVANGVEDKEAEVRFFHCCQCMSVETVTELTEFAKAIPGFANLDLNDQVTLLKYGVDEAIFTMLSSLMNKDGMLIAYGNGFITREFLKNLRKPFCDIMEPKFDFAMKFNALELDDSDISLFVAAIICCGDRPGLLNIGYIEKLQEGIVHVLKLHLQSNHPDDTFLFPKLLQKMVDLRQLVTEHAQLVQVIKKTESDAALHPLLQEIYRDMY
Experiment: GC-MS of GFP-affinity purified extract of transduced Ppara-null hippocampal neurons
Assay type: binding
Settings: lenti-GFP-Y314D-Ppara transduced Ppara-null neurons
Experimental: Lentivirus-mediated de novo expression studies were performed, where wild type full-length (GFP-FLPpara) was overexpressed and three different LBD-mutated PPARα (GFP-Y314D, GFP-Y464D and GFP-Y314D/Y464D Ppara) recombinant proteins (FIG. 9D) were expressed in neurons followed by binding analyses with three endogenous ligands. Briefly, site directed mutagenesis was performed in the mouse PPARα with Y314 and Y464 residues replaced separately or together with aspartate (D). […] We normalized peak area of different ligands with that of internal standard and then quantified the binding affinity of these ligands with different construct of PPARα by peak integration statistics (Table 1).
Either E18 cultured mouse hippocampal neurons or hippocampal tissue of 6-8 week old male C57/BL6 mice were homogenized in ice-cold nondetergent hypotonic buffer [10 mM HEPES (pH 7.9), 1.5 mM MgCl2, 10 mM KCl, […], protease and phosphatase inhibitor cocktail]. […] The organic phase was collected, evaporated in the SpeedVac, reconstituted with 30 μL chloroform or acetonitrile, and then analyzed by GC-MS. […] After that, the eluate was collected from the column with 5M NaCl solution, concentrated with PD-10 desalting column and analyzed for GC-MS. […]

CCCCCCCCCCCCCCCC(N)=O [HEX, hexadecanamide]
amount detected in nuclear extract by GC-MS: low amount

CCCCCCCCC=CCCCCCCCC(N)=O [OCT, 9-octadecenamide]
amount detected in nuclear extract by GC-MS: low amount
